Several values for one entry are separate records, joined by “and”; a condition that tells them apart may be missing. Identical values can stand only once. Counter-ions that a name gives are not always drawn. Each block holds one compound with its values, some of them ahead of it.
Assays:
phosphatase [1] = details: cited from earlier work
full-length DUSP5 = target: T1, full-length DUSP5 (Homo sapiens, UniProt Q16690); experiment: ERK dephosphorylation assay, full-length DUSP5 with pERK2 substrate, western blot; assay type: biochemical
T1 construct: an assay was development using ERK2 and full-length DUSP5
T1 sequence (Q16690 1-384): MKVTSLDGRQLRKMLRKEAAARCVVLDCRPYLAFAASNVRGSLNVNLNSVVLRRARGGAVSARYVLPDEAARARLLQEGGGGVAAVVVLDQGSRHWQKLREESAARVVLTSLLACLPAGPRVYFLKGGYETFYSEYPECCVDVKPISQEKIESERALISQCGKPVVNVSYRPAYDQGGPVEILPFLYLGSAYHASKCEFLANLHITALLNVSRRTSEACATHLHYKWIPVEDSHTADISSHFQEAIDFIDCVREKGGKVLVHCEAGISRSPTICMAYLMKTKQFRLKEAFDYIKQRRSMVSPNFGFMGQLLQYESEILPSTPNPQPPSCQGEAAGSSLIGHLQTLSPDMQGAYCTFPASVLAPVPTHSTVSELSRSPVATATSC
Experimental: ERK Dephosphorylation Assay.
For this assay, 10 ng of GST-tagged recombinant phosphorylated ERK2 (R&D Systems, 1230-KS) was incubated with and without the indicated DUSP5 proteins (0.5 nM final concentration) for 15 min at room temperature, with or without the indicated drugs. The reactions were halted with 2× Laemmli sample buffer and subjected to SDS-PAGE. The proteins were transferred to polyvinylidene difluoride (PVDF) and immunoblotted using antibodies to pERK (Cell Signaling Tech., #9106) and Total ERK (Cell Signaling Tech., #9102). Bound antibodies were visualized using horseradish peroxidase-linked anti-mouse IgG (Cell Signaling Tech, #7076S) and anti-rabbit IgG (Cell Signaling Tech, #7074S), respectively, and ECL reagents (Pierce, 34708) according to the manufacturer's protocol. IC50s were calculated using GraphPad Prism 6 software.
And, the native substrate for DUSP5 is the pERK2 protein, which is much larger and capable of a more complicated range of inter-molecular interactions that the pNPP substrate (which is intended only to mimic the phospho-tyrosine of pERK). […] To this end, an assay was development using ERK2 and full-length DUSP5, monitoring pERK levels in a western blot, as a function of pERK2 substrate concentration. […] This surprising increase in potency for CSD3-2320 (but not NTS) with full length DUSP5 underscores the importance of performing secondary assays with biologically relevant forms of enzyme and substrate.

DUSP5 PD(WT) [2] = target: T2, DUSP5 PD(WT) (Homo sapiens, UniProt Q16690); experiment: pNPP phosphatase activity assay with DUSP5 PD(WT); assay type: biochemical
T2 construct: hexa-histidine (N); made in house; host or cells: E. coli BL21(DE3)
T2 sequence (Q16690 178-319 limits assumed): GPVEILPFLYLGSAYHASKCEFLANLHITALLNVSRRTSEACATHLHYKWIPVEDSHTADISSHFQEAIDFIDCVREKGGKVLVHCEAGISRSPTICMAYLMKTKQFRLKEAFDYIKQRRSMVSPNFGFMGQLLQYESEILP
From the text: p-Nitrophenolphosphatase (pNPP) Activity Assay.
To measure enzymatic activity of the DUSP5 PD and the inhibitory capacity of selected molecules, an in vitro phosphatase assay was developed based on previous studies (27). In this assay, DUSP5 PD dephosphorylates the substrate p-nitrophenol phosphate (pNPP, Sigma Aldrich), yielding p-nitrophenolate, which absorbs at 405 nm with an extinction coefficient of 18,000 M-1 cm-1.
Thus, an increase in absorbance at 405 nm corresponds to the turnover of pNPP top-nitrophenolate. The assay was initially optimized in 1 mL quartz cuvettes, then was subsequently optimized for and validated in a 96-well plate format. All IC50 values were obtained using the 96-well plate assay format (see below). The assay buffer contained 100 mM Tris, 100 mM sodium chloride, 5 mM magnesium chloride, and 1 mM dithiothreitol (DTT) at pH 7.5. The pNPP substrate was prepared as a 50 mM stock by dissolving the solid substrate in assay buffer. The DUSP5 PD and pNPP were assayed initially in a cuvette (1 mL total volume) and initial velocities were fitted to the Michaelis-Menten equation (1)
where v is the initial velocity, Vmax is the maximum velocity, Km is the Michaelis constant, and [S] is the concentration of pNPP. Data were fitted using a nonlinear least squares fit to eq. 1, with GraphPad Prism 6 software.
For the 96-well plate validation assay, sodium orthovanadate (Sigma Aldrich) was utilized as a positive control for inhibition (Swarup et al., Biochem Biophys Res Commun. 1982; 107:1104-9.) at a final concentration of 10 μM, to completely block activity. All plate assays were performed in standard 96-well clear bottom plates (Thermo Scientific Nunc) with a total assay volume of 200 μL, using a SpectraMax M5 Microplate Reader (Molecular Devices). The plate validation assay was performed with replicate columns of positive control wells, negative control wells and blank wells. Blank columns contained only buffer and pNPP. Negative control (uninhibited) contained buffer, pNPP, and DUSP5 PD; and, positive control contained the same components, but also contained 10 μM sodium orthovanadate. The plate was then shaken and allowed to equilibrate in the spectrophotometer at 25° C. for 30 min. After incubation, 4 μL of a […] was dispensed into appropriate wells utilizing a single-channel pipette. This produced a final enzyme concentration of 1 μM. Before a read was taken, the plate was shaken for five seconds. The initial rate for the DUSP5 PD reaction was linear for approximately 90 min; and, the plate was kept in the spectrophotometer at 25° C. for an additional 80 min after the kinetic read. The endpoint reading was subsequently taken at 90 min after initiation of reaction. Slopes from the kinetic read, as well as single-point absorbance values at the 90-minute endpoint read, were then averaged. For blank wells and positive control wells, both slope values (continuous assay) and single point absorbance values (fixed time assay) were approximately zero, as expected. Standard deviations were calculated and a Z′ value (Zhang et al., J Biomol Screening. 1999; 4:67-73) subsequently determined using the following equation: […]
IC50 values were obtained using the assay described above, in 96 well plates. The maximum inhibitor concentration screened in any plate was […] and the minimum was 1.5 μM. The IC50 plate was designed so that the first column of wells served as blanks, with wells containing only buffer and substrate. The second column of wells functioned as the plate negative control, with each well containing buffer, substrate and enzyme. The remaining wells in the plate contained buffer, substrate, enzyme, and varying amounts of inhibitor, with inhibitor concentration increasing from left to right across the plate. Data points were collected in triplicate, and inhibitor concentrations were chosen to provide data equally spread on a logarithmic scale. […]

PTPN1 = target: T3, PTPN1 (Homo sapiens, UniProt P18031); experiment: Phosphatase inhibition profiles (Table 4), initial rates; assay type: biochemical; details: read-out: IC50 PTPN1 (mean ± SE)
T3 sequence (P18031 1-435): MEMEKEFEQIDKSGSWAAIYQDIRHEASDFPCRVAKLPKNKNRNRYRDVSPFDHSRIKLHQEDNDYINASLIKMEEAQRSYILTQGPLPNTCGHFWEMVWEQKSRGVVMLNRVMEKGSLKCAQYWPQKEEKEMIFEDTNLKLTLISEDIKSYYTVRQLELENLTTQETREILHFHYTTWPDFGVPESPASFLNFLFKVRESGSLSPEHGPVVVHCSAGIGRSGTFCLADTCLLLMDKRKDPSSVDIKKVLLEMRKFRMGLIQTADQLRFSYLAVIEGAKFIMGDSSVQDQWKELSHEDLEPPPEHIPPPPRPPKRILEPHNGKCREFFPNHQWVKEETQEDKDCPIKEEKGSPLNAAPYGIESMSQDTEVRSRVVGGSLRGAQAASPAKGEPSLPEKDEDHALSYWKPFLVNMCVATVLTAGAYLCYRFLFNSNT

DUSP5 (PD)-WT = target: T4, DUSP5 (PD)-WT (Homo sapiens, UniProt Q16690); experiment: as above; assay type: biochemical; details: read-out: IC50 DUSP5 (PD)-WT (mean ± SE)
T4 construct: hexa-histidine (N); made in house; host or cells: E. coli BL21(DE3)
T4 sequence (Q16690 178-319): T2 sequence (Q16690 178-319 limits assumed)

SHP-1 = SHP-1 (Homo sapiens, UniProt P29350); experiment: NCI compound library screen, phosphatase inhibitory activity; assay type: biochemical
SHP-1, sequence (P29350 whole entry): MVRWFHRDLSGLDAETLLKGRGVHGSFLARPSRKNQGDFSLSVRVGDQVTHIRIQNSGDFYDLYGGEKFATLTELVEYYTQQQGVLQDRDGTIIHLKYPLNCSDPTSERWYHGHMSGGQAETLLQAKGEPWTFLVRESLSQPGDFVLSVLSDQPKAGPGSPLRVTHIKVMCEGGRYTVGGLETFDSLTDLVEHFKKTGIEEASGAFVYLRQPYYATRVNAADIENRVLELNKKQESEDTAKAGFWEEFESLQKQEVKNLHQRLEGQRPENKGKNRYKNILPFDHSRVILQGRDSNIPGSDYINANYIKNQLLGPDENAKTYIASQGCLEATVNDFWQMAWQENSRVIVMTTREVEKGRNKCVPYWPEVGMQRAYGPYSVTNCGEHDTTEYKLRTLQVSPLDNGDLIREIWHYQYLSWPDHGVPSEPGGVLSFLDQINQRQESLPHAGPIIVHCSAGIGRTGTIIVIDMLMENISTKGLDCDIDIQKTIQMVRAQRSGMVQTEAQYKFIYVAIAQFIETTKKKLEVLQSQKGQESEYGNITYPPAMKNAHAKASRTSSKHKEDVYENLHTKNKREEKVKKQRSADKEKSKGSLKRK

[3] = Aggregation of compounds (nephelometry; detergent treatment); assay type: physicochemical
Experimental: Nephelometry is a technique for measuring the relative aggregation of particles in solution, based on the light-scattering properties of molecular aggregates (30). To explore the ability of the chemicals studied herein to form aggregates, which can lead to artifactual inhibition effects, nephelometry was performed. Compounds were tested for aggregation in 96-well plates using a buffer containing 100 mM Tris base, 100 mM sodium chloride, and 5 mM magnesium chloride at pH 7.5. Each compound analyzed in these experiments contained concentrations of compound ranging from 10-100 μM, recorded in quadruplet. Each plate was analyzed at two separate gain values of 52 and 72. Data were collected using a BMG NEPHELOstar Plus, equipped with a 635 nm laser.
To investigate whether Suramin aggregates in solution, a property often investigated with small molecules, we performed detergent treatment assays. […] NTS and Suramin were compared using DUSP5 PD IC50 assays performed with and without detergent. […] We concluded that Suramin forms aggregates in vitro which can lead to non-specific protein inhibition effects. Beyond any adverse implications for repurposing Suramin in this project, the aggregation phenomenon raises more global concerns regarding the current clinical use of Suramin, and may in part explain some of the known toxicity associated with Suramin (32).

phosphatase [4] = experiment: Phosphatase inhibitory activity (Example 3, range of activity); assay type: biochemical
PTP1B = PTP1B (Homo sapiens, UniProt P18031); experiment: NCI compound library screen, phosphatase inhibitory activity; assay type: biochemical
[5] = test system: pERK levels in HUVEC cells; experiment: pERK levels in HUVEC cells, western blot; assay type: cell-based, Human; details: HUVECs incubated 2 hours, pERK relative to total ERK; Na3VO4 at 200 μM
Experimental: Cell Culture and Western Blots.
Human Umbilical Vein Endothelial Cells (HUVECs) were maintained in EBM2 media (Lonza, CC-3156) supplemented with a combined serum and growth factor kit (Lonza, CC-4176). Cells were incubated with the indicated concentrations of drug for 2 h and lysed with RIPA buffer (Sigma, R0278) on ice. Cell lysates were cleared by centrifugation at 16,300×g for 30 min. The resulting supernatants were isolated and protein concentration determined by Lowry assay (DC protein assay, BioRad). 2× laemmli sample buffer was added to equal amounts of protein and separated by SDS-PAGE. The protein gels were transferred to polyvinylidene difluoride (PVDF) and immunoblotted using antibodies to phosphorylated ERK (Cell Signaling, #9106) and total ERK (Cell Signaling, #9102). Bound antibodies were visualized using horseradish peroxidase-linked anti-rabbit IgG, anti-mouse IgG (Cell Signaling Tech., #7074 and #7076) and ECL reagents (Thermo Scientific, 34080) according to the manufacturer's protocol.

DUSP5 PD(WT) [6] = target: T2, DUSP5 PD(WT); experiment: pNPP phosphatase activity assay with DUSP5 PD(WT); assay type: biochemical; details: 1 mL cuvettes, pNPP substrate

SMILES: O=S(=O)(O)c1ccc2cc(N=Nc3cc(S(=O)(=O)O)c4cccnc4c3O)ccc2c1 [NSC-87877]
- range of phosphatase inhibition, published compound (phosphatase [1]): ~1.7 mM

- IC50 (full-length DUSP5; full-length DUSP5, pERK/ERK2 substrate): 221 ± 87 µM
SMILES: O=S(=O)(O)c1ccc2c(S(=O)(=O)O)cc(S(=O)(=O)O)cc2c1 [NTS, naphthalene 1,3,6-trisulfonate]

- IC50's, range in words (DUSP5 PD(WT) [2]; enzyme inhibition (FIG. 3)): mM range
SMILES: O=S(=O)(O)c1cc(S(=O)(=O)O)c2[nH]c3c(S(=O)(=O)O)cc(S(=O)(=O)O)cc3c2c1 [RR506, Carbazole-1,3,6,8-tetrasulfonic acid, Tetrasodium Salt]

- IC50 (PTPN1): 106 ± 0.1 µM
- IC50 (DUSP5 (PD)-WT): 26.4 ± 7.2 µM
SMILES: O=S(=O)(O)c1cc(Oc2cc(S(=O)(=O)O)cc(S(=O)(=O)O)c2O)c(O)c(S(=O)(=O)O)c1 [RR533]

- phosphatase inhibitory activity (SHP-1): phosphatase inhibitory activity
- IC50 (PTPN1): > 1000 µM
- aggregation [3]: do not aggregate
- range in which active (phosphatase [4]; monomer): ~1e-06 mM
- phosphatase inhibitory activity (PTP1B): phosphatase inhibitory activity
SMILES: Nc1cccc2c(O)cc(S(=O)(=O)O)cc12 [RR535]

- IC50 (PTPN1): 2.5 ± 0.1 µM
- IC50 (DUSP5 (PD)-WT): 30 ± 3 µM
- aggregation [3]: do not aggregate
- range in which active (phosphatase [4]; dimer): ~30 mM
SMILES: O=S(=O)(O)c1cc(O)c2cccc(N=Nc3cccc4c(O)cc(S(=O)(=O)O)cc34)c2c1 [RR601]

- activity in DUSP5:pERK assay, in words (full-length DUSP5; in vitro, western blot): robust activity
SMILES: O=S(=O)([O-])c1cc2c(O)c(c1)Cc1cc(S(=O)(=O)[O-])cc(c1O)Cc1cc(S(=O)(=O)[O-])cc(c1O)Cc1cc(S(=O)(=O)[O-])cc(c1O)C2.[Na+].[Na+].[Na+].[Na+] [RR701]

- inhibition at 1 µM (DUSP5 PD(WT) [2]; 1 μM Suramin, 5 mM pNPP, increasing Triton X-100, read-out: plateau level inhibition with increasing detergent): 30%
- mechanism of inhibition (DUSP5 PD(WT) [2]; inhibition profile versus pNPP): competitive inhibition
- Ki (DUSP5 PD(WT) [2]; read-out: Ki, competitive inhibition, varied pNPP and inhibitor): 24.6 µM and 25 µM
- aggregation [3]: Aggregates
SMILES: Cc1ccc(C(=O)Nc2ccc(S(=O)(=O)O)c3cc(S(=O)(=O)O)cc(S(=O)(=O)O)c23)cc1NC(=O)c1cccc(NC(=O)Nc2cccc(C(=O)Nc3cc(C(=O)Nc4ccc(S(=O)(=O)O)c5cc(S(=O)(=O)O)cc(S(=O)(=O)O)c45)ccc3C)c2)c1 [Suramin]
- effect on pERK levels [5]: significant decrease in pERK levels
- effect of detergent on inhibition (DUSP5 PD(WT) [2]; IC50 measurement in presence and absence of 0.5% Triton): loss of some inhibitory capability in the presence of detergent

- IC50 (DUSP5 PD(WT) [6]): 0.008 ± 0.008 µM
SMILES: [Na+].[Na+].[Na+].[O]=[V]([O-])([O-])[O-] [sodium orthovanadate]
- effect on pERK levels [5]: expected increase in pERK levels
